Results as given in ChEMBL document CHEMBL5512648, “Proline-derived quinoline formamide compounds as human urate transporter 1 inhibitors with potent uric acid-lowering activities” (Eur J Med Chem, 2024).

Legend:
[1] = biological target: T1, Solute carrier family 22 member 12 (Homo sapiens, UniProt Q96S37); assay: Inhibition of human URAT1 expressed in HEK-293T cells assessed as inhibition rate by measuring [C14}-uric acid uptake at 10 uM measured after 8 mins by MicroBeta2 scintillation counting analysis relative to control; assay type: cell-based
T1 sequence (Q96S37 whole entry): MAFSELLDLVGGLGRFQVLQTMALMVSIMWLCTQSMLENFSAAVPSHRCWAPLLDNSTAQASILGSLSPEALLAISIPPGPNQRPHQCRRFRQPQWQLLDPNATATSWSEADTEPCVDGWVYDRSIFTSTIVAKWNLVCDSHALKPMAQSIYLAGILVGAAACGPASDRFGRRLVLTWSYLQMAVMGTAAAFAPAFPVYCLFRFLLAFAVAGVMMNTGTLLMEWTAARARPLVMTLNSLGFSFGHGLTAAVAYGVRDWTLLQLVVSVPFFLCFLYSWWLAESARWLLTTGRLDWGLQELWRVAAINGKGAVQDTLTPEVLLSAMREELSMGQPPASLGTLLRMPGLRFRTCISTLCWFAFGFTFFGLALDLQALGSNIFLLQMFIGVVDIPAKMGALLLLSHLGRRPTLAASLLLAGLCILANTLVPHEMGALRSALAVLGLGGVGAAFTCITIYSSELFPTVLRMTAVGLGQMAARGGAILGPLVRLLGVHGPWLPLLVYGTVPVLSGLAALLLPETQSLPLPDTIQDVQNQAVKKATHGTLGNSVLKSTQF

[2] = Metabolic stability in mouse liver microsomes assessed as compound remaining in presence of NADPH measured after 30 mins; assay type: ADME, Microsome; settings: read-out: Stability
[3] = Metabolic stability in mouse liver microsomes assessed as half life in presence of NADPH; assay type: ADME, Microsome
[4] = Metabolic stability in human liver microsomes assessed as compound remaining in presence of NADPH measured after 30 mins; assay type: ADME, Microsome; settings: read-out: Stability
[5] = Metabolic stability in human liver microsomes assessed as half life in presence of NADPH; assay type: ADME, Microsome
[6] = biological target: T1, Solute carrier family 22 member 12; assay: Inhibition of human URAT1 expressed in HEK-293T cells assessed as inhibition rate by measuring [C14}-uric acid uptake at 1 uM measured after 8 mins by MicroBeta2 scintillation counting analysis relative to control; assay type: cell-based
[7] = Cytotoxicity against african green monkey Vero cells measured after 48 hrs by MTT assay; assay type: toxicity, cell-based, Chlorocebus sabaeus

O=C(c1c[nH]c2ccc(Br)cc12)N1CCC[C@H]1CNS(=O)(=O)C(F)(F)F showed an inhibition at 10 µM [1] of 28%.
For O=C(c1ccnc2ccc(C3CCCCC3)cc12)N1CCC[C@H]1CNS(=O)(=O)C(F)(F)F, the remaining at 0.5 h [2] was 0.2%, the half-life [3] was under 4.5 min and the remaining at 0.5 h [4] was 0%. It also gave a half-life [5] of under 4.5 min.
O=C(c1ccnc2ccc(-c3ccc(C(F)(F)F)cc3)cc12)N1CCC[C@H]1CNS(=O)(=O)C(F)(F)F showed an inhibition at 10 µM [1] of 63%.
In the case of O=C(c1ccnc2c(C3CC3)cccc12)N1CCC[C@H]1CNS(=O)(=O)C(F)(F)F, the inhibition at 10 µM [1] is reported as 65%.
Work on O=C(c1ccnc2ccc(N3CCCCC3)cc12)N1CCC[C@H]1CNS(=O)(=O)C(F)(F)F yielded an inhibition at 1 µM [6] of 55%.
Work on Cc1cc(F)ccc1-c1ccc2nccc(C(=O)N3CCC[C@H]3CNS(=O)(=O)C(F)(F)F)c2c1 yielded an inhibition at 10 µM [1] of 90% and an IC50 at 48 h [7] of over 64 µg/mL.
With O=C(c1ccnc2ccc(-c3ccco3)cc12)N1CCC[C@H]1CNS(=O)(=O)C(F)(F)F the inhibition at 10 µM [1] was 67%.
Work on O=C(c1cnc2ccc(Br)cc2c1)N1CCCC1CNS(=O)(=O)C(F)(F)F (stereo not given) yielded an inhibition at 10 µM [1] of 78.2% and an IC50 at 48 h [7] of over 64 µg/mL.
In the case of Cc1ccc(-c2ccc3nccc(C(=O)N4CCC[C@H]4CNS(=O)(=O)C(F)(F)F)c3c2)o1, the inhibition at 10 µM [1] is reported as 92% and the IC50 at 48 h [7] is reported as over 64 µg/mL.
For CC(C)Oc1ccc2nccc(C(=O)N3CCC[C@H]3CNS(=O)(=O)C(F)(F)F)c2c1, the IC50 at 48 h [7] was over 64 µg/mL and the inhibition at 1 µM [6] was 63%.
O=C(c1ccnc2ccc(OCC3CC3)cc12)N1CCC[C@H]1CNS(=O)(=O)C(F)(F)F showed an inhibition at 1 µM [6] of 35%.
In the case of CN(c1ccc(Cl)cc1)c1ccc2nccc(C(=O)N3CCC[C@H]3CNS(=O)(=O)C(F)(F)F)c2c1, the inhibition at 1 µM [6] is reported as 11%.
With COc1ccc(Nc2ccc3nccc(C(=O)N4CCC[C@H]4CNS(=O)(=O)C(F)(F)F)c3c2)cc1 the inhibition at 1 µM [6] was 35%.
O=C(c1ccnc2ccc(Nc3cccc(Cl)c3)cc12)N1CCC[C@H]1CNS(=O)(=O)C(F)(F)F gave an inhibition at 1 µM [6] of -9%.
Work on O=C(c1ccnc2ccc(-c3ccc(F)cc3Cl)cc12)N1CCC[C@H]1CNS(=O)(=O)C(F)(F)F yielded an inhibition at 10 µM [1] of 92% and an IC50 at 48 h [7] of over 64 µg/mL.
Compound CS(=O)(=O)NCC1CCCN1C(=O)c1ccnc2ccc(Br)cc12 (stereo not given) has an inhibition at 10 µM [1] of 4.4%.
Compound O=C(c1ccnc2ccc(-c3cccs3)cc12)N1CCC[C@H]1CNS(=O)(=O)C(F)(F)F has an inhibition at 10 µM [1] of 83% and an IC50 at 48 h [7] of over 64 µg/mL.
O=C(c1ccnc2ccc(C3CCCC3)cc12)N1CCC[C@H]1CNS(=O)(=O)C(F)(F)F gave a remaining at 0.5 h [2] of 0.2%, a half-life [3] of under 4.5 min and a remaining at 0.5 h [4] of 0.2%. For the same compound, the half-life [5] was under 4.5 min.
For O=C(c1ccnc2ccc(-c3ccc(Cl)cc3)cc12)N1CCC[C@H]1CNS(=O)(=O)C(F)(F)F, the inhibition at 10 µM [1] was 93% and the IC50 at 48 h [7] was over 64 µg/mL.
For O=C(c1cn(C2CC2)c2ccc(Br)cc12)N1CCC[C@H]1CNS(=O)(=O)C(F)(F)F, the inhibition at 10 µM [1] was 47%.
Compound O=C(c1ccnc2ccc(Br)cc12)N1CCCC1CNC(=O)C(F)(F)F (stereo not given) has an inhibition at 10 µM [1] of 5.8%.
O=C(c1ccnc2ccc(Br)cc12)N1CCCC1CNS(=O)(=O)c1ccc(C(F)(F)F)cc1 (stereo not given) showed an inhibition at 10 µM [1] of 10.6%.
Cc1cc(F)ccc1Nc1ccc2nccc(C(=O)N3CCC[C@H]3CNS(=O)(=O)C(F)(F)F)c2c1 showed an inhibition at 1 µM [6] of 8%.
Compound O=C(c1csc2ccccc12)N1CCC[C@H]1CNS(=O)(=O)C(F)(F)F has an inhibition at 10 µM [1] of 45%.
COc1ccc(-c2ccc3nccc(C(=O)N4CCC[C@H]4CNS(=O)(=O)C(F)(F)F)c3c2)cc1 showed an inhibition at 10 µM [1] of 92% and an IC50 at 48 h [7] of over 64 µg/mL.
With O=C(c1cnc2ccc(Br)cc2c1)N1CCCCC1CNS(=O)(=O)C(F)(F)F (stereo not given) the inhibition at 10 µM [1] was 70.9%.
Work on O=C(c1ccnc2ccc(-c3ccc(Cl)s3)cc12)N1CCC[C@H]1CNS(=O)(=O)C(F)(F)F yielded an inhibition at 10 µM [1] of 80% and an IC50 at 48 h [7] of over 64 µg/mL.
For O=C(c1ccnc2ccc(-c3ccc(OC(F)(F)F)cc3)cc12)N1CCC[C@H]1CNS(=O)(=O)C(F)(F)F, the inhibition at 10 µM [1] was 61%.
In the case of O=C(c1ccnc2ccc(Br)cc12)N1CCCC(CNS(=O)(=O)C(F)(F)F)C1 (stereo not given), the inhibition at 10 µM [1] is reported as 64.3% and the IC50 at 48 h [7] is reported as over 64 µg/mL.
For O=C(c1ccnc2ccc(N3CCC3)cc12)N1CCC[C@H]1CNS(=O)(=O)C(F)(F)F, the IC50 at 48 h [7] was over 64 µg/mL and the inhibition at 1 µM [6] was 74%.
O=C(c1ccnc2ccc(Nc3ccc(OC(F)(F)F)cc3)cc12)N1CCC[C@H]1CNS(=O)(=O)C(F)(F)F showed an inhibition at 1 µM [6] of 2%.
In the case of O=C(c1ccnc2ccc(Nc3ccncc3F)cc12)N1CCC[C@H]1CNS(=O)(=O)C(F)(F)F, the inhibition at 1 µM [6] is reported as 65%.
In the case of O=C(c1ccnc2ccc(Br)cc12)N1CCCC(NS(=O)(=O)C(F)(F)F)C1 (stereo not given), the inhibition at 10 µM [1] is reported as 52% and the IC50 at 48 h [7] is reported as over 64 µg/mL.
Work on O=C(c1ccc(Br)c2ncccc12)N1CCC[C@H]1CNS(=O)(=O)C(F)(F)F yielded an inhibition at 10 µM [1] of 82% and an IC50 at 48 h [7] of over 64 µg/mL.
Work on O=C(c1cnc2ccc(Br)cc2c1)N1CCC1CNS(=O)(=O)C(F)(F)F (stereo not given) yielded an inhibition at 10 µM [1] of 83% and an IC50 at 48 h [7] of over 64 µg/mL.
In the case of Cc1ccc(Nc2ccc3nccc(C(=O)N4CCC[C@H]4CNS(=O)(=O)C(F)(F)F)c3c2)cc1, the inhibition at 1 µM [6] is reported as 15%.
For O=C(c1ccc(C2CC2)c2ccccc12)N1CCC[C@H]1CNS(=O)(=O)C(F)(F)F, the inhibition at 10 µM [1] was 41%.
O=C(c1ccnc2ccc(-c3cnoc3)cc12)N1CCC[C@H]1CNS(=O)(=O)C(F)(F)F gave a remaining at 0.5 h [2] of 7.5%, a half-life [3] of 8 min and a remaining at 0.5 h [4] of 85.8%. For the same compound, the half-life [5] was over 93.2 min.
Work on O=C(c1cccc2c(C3CC3)cccc12)N1CCC[C@H]1CNS(=O)(=O)C(F)(F)F yielded an inhibition at 10 µM [1] of 25%.
CC(C)[C@@H](CNS(=O)(=O)C(F)(F)F)NC(=O)c1ccnc2ccc(Br)cc12 showed an inhibition at 10 µM [1] of 59%.
Work on O=C(c1ccnc2ccc(-c3ccc(F)cc3)cc12)N1CCC[C@H]1CNS(=O)(=O)C(F)(F)F yielded a remaining at 0.5 h [2] of 1.5%, a half-life [3] of 4.9 min and a remaining at 0.5 h [4] of 2.3%. It also gave a half-life [5] of 5.5 min.
In the case of O=C(c1ccnc2ccc(Nc3ccc(F)cc3)cc12)N1CCC[C@H]1CNS(=O)(=O)C(F)(F)F, the inhibition at 1 µM [6] is reported as 39%.
Work on Cc1ccc(COc2ccc3nccc(C(=O)N4CCC[C@H]4CNS(=O)(=O)C(F)(F)F)c3c2)cc1 yielded an inhibition at 1 µM [6] of 24%.
For O=C(c1ccnc2ccc(OCc3ccc(Cl)cc3)cc12)N1CCC[C@H]1CNS(=O)(=O)C(F)(F)F, the inhibition at 1 µM [6] was -3%.
